# Measurements as given in patent US11787788B2, “Benzimidazole derivatives, and pharmaceutical compositions and methods of use thereof” (CAPELLA THERAPEUTICS, INC., priority 2014, dated 2023).
# Key:
# Type in all cases: cell-based
# [1] = system: HCC827 human NSCLC adenocarcinoma cells; assay: Cell proliferation assay, mutant ERBB1 (exon 19 deletion); conditions: for GI50: Homo sapiens, HCC827, 72 hrs treatment; for Selectivity Ratio (Wild-type ERBB1/Mutant ERBB1) A431/HCC827: ratio of GI50 A431/HCC827; for Selectivity Ratio (Wild-type ERBB1/Mutant ERBB1) HEKn/HCC827: ratio of GI50 HEKn/HCC827
# Procedure: (§1) The biological activity of a test compound was determined using cell proliferation assays. The activity against wild-type ERBB1 was determined using A431 human epidermoid carcinoma cells (ATCC) and human epidermal keratinocytes, neonatal, or HEKn cells (ATCC).
# (§2) A431 cells were grown in DMEM (Invitrogen) supplemented with 10% FBS (Lonza), 1% penicillin-streptomycin, and 2 mM glutamine (Invitrogen). HEKn cells were grown in EPILIFE® (Invitrogen) supplemented with HKGS (Invitrogen). HCC827 and H1975 were cultured in RPMI1640 supplemented with 10% FBS (Lonza), 1% penicillin-streptomycin, and 2 mM glutamine (Invitrogen). Cells were maintained and propagated at 37° C. and 5% CO2 in a humidified cell culture incubator. Aliquots of cells from early passages were preserved for liquid nitrogen storage. Frozen vials of cells were thawed at 37° C. water bath. Cells were spun to remove freezing medium. The newly revived frozen cells were adapted in culture for 10 days before used for compound testing. Cells used in the assay were less than 20 subculture passages or 3 months in culture.
# (§3) The test compounds were dissolved in dimethylsulfoxide (DMSO) and stored at −20° C. before testing. […] The cells were placed in a culture incubator overnight. Next day, test compounds in DMSO were added to the cells and placed back in the culture incubator for 72 hrs. In the meantime, the cell numbers at time zero of the compound treatment (T0) was measured by ENERCOUNT® (Codex BioSolutions). At the end of the compound treatment, the cell numbers were again measured by EnerCount as T72 values. The untreated controls (Ctrl) were cell numbers recorded from the 0.1% DMSO treatment. The percent growth inhibition by the test compound was calculated by the formula: (1−(T72−T0)/(Ctrl−T0))×100.
# (§4) The results are summarized in Tables 1 and 2, wherein A represents a value no greater than 500 nM, B represents a value greater than 500 nM but no greater than 1 μM, C represents a value greater than 1 μM but no greater than 5 μM, and D represents a value greater than 5 μM; and wherein A′ represents a ratio of greater than 10, B′ represents a ratio of no greater than 10 but no less than 5, C′ represents a ratio of no greater than 5 but no less than 2, and D′ represents a ratio of no greater than 2.
# [2] = system: A431 human epidermoid carcinoma cells; assay: Cell proliferation assay, wild-type ERBB1; conditions: A-431, 72 hrs treatment, class symbols
# Procedure: as §1, §2, §3, §4
# [3] = system: human epidermal keratinocytes, neonatal, or HEKn cells; assay: Cell proliferation assay, wild-type ERBB1; conditions: Keratinocyte, 72 hrs treatment
# Procedure: as §1, §2, §3, §4
# [4] = system: H1975 human NSCLC adenocarcinoma cells; assay: Cell proliferation assay, drug-resistant mutant ERBB1 (T790M/L858R); conditions: for GI50: Homo sapiens, NCI-H1975, 72 hrs treatment, class symbols; for Selectivity Ratio (Wild-type ERBB1/Mutant ERBB1) A431/H1975: ratio of GI50 A431/H1975; for Selectivity Ratio (Wild-type ERBB1/Mutant ERBB1) HEKn/H1975: ratio of GI50 HEKn/H1975
# Procedure: as §1, §2, §3, §4
Compound,GI50 ([1]; class symbols),GI50 [2],GI50 [4],"GI50 ([1]; numeric values, unit inferred)",Selectivity Ratio (Wild-type ERBB1/Mutant ERBB1) A431/HCC827 [1],Selectivity Ratio (Wild-type ERBB1/Mutant ERBB1) HEKn/HCC827 [1],GI50 ([3]; class symbols),Selectivity Ratio (Wild-type ERBB1/Mutant ERBB1) A431/H1975 [4],Selectivity Ratio (Wild-type ERBB1/Mutant ERBB1) HEKn/H1975 [4],"GI50 ([3]; numeric values, unit inferred)"
"C=CC(=O)N1CCC(Oc2cccc3nc(NC(=O)c4ccnc(C)c4)n([C@@H]4CCCCN(C(=O)C=C)C4)c23)CC1 [Compound A3, (R)—N-(1-(1-acryloylazepan-3-yl)-7-((1-acryloylpiperidin-4-yl)oxy)-1H-benzo[d]imidazol-2-yl)-2-methylisonicotinamide]",< 0.5 µM,> 5 µM,< 0.5 µM,–,A′ (A′ represents a ratio of greater than 10),A′ (A′ represents a ratio of greater than 10),1 to 5 µM,B′ (B′ represents a ratio of no greater than 10 but no less than 5),A′ (A′ represents a ratio of greater than 10),–
"C=CC(=O)Nc1cccc(Nc2nc(Nc3ccc(N4CCN(C(C)=O)CC4)cc3OC)ncc2C(F)(F)F)c1 [CO-1686, reference compound]",–,–,–,0.032 µM,–,A′ (A′ represents a ratio of greater than 10),–,–,A′ (A′ represents a ratio of greater than 10),2.5 µM
"Cc1cc(C(=O)Nc2nc3cc(OC(F)(F)F)cc(Cl)c3n2[C@@H]2CCCCN(C(=O)/C=C/CN(C)C)C2)ccn1 [Compound A5, (R,E)-N-(7-Chloro-1-(1-(4-(dimethylamino)but-2-enoyl)azepan-3-yl)-5-(trifluoromethoxy)-1H-benzo[d]imidazol-2-yl)-2-methylisonicotinamide]",< 0.5 µM,1 to 5 µM,< 0.5 µM,–,A′ (A′ represents a ratio of greater than 10),A′ (A′ represents a ratio of greater than 10),1 to 5 µM,C′ (C′ represents a ratio of no greater than 5 but no less than 2),A′ (A′ represents a ratio of greater than 10),–
"C=CC(=O)N1CCCC[C@@H](n2c(NC(=O)c3ccnc(C)c3)nc3cc(OC(F)(F)F)cc(Cl)c32)C1 [Compound A4, (R)—N-(1-(1-Acryloylazepan-3-yl)-7-chloro-5-(trifluoromethoxy)-1H-benzo[d]imidazol-2-yl)-2-methylisonicotinamide]",< 0.5 µM,1 to 5 µM,< 0.5 µM,–,A′ (A′ represents a ratio of greater than 10),A′ (A′ represents a ratio of greater than 10),1 to 5 µM,C′ (C′ represents a ratio of no greater than 5 but no less than 2),C′ (C′ represents a ratio of no greater than 5 but no less than 2),–

# Second part, led by results:
GI50 ([1]; class symbols),GI50 [2],GI50 [4],"GI50 ([1]; numeric values, unit inferred)",Compound,Selectivity Ratio (Wild-type ERBB1/Mutant ERBB1) A431/HCC827 [1],Selectivity Ratio (Wild-type ERBB1/Mutant ERBB1) HEKn/HCC827 [1],GI50 ([3]; class symbols),Selectivity Ratio (Wild-type ERBB1/Mutant ERBB1) A431/H1975 [4],Selectivity Ratio (Wild-type ERBB1/Mutant ERBB1) HEKn/H1975 [4],"GI50 ([3]; numeric values, unit inferred)"
< 0.5 µM,< 0.5 µM,< 0.5 µM,–,"C=CC(=O)N1CCCC[C@@H](n2c(NC(=O)c3ccnc(C)c3)nc3cccc(OC4CCN(CC)CC4)c32)C1 [Compound A1, (R)—N-(1-(1-Acryloylazepan-3-yl)-7-((1-ethylpiperidin-4-yl)oxy)-1H-benzo[d]imidazol-2-yl)-2-methylisonicotinamide]",A′ (A′ represents a ratio of greater than 10),A′ (A′ represents a ratio of greater than 10),1 to 5 µM,A′ (A′ represents a ratio of greater than 10),A′ (A′ represents a ratio of greater than 10),–
< 0.5 µM,0.5 to 1 µM,< 0.5 µM,–,"C=CC(=O)N1CCCC[C@@H](n2c(NC(=O)c3ccnc(C)c3)nc3cccc(OC4CCN(C(C)=O)CC4)c32)C1 [Compound A2, (R)—N-(7-((1-acetylpiperidin-4-yl)oxy)-1-(1-acryloylazepan-3-yl)-1H-benzo[d]imidazol-2-yl)-2-methylisonicotinamide]",A′ (A′ represents a ratio of greater than 10),A′ (A′ represents a ratio of greater than 10),> 5 µM,B′ (B′ represents a ratio of no greater than 10 but no less than 5),A′ (A′ represents a ratio of greater than 10),–
